Measurements published in patent publication US20220348590A1, “CYCLOOXYGENASE-2 INHIBITORS AND USES THEREOF” (The Board Institute, Inc., priority 2019, published 2022).
Read-outs that look alike come from different tables or passages of the source.

Target: T1, human recombinant COX2 (hCOX2) (UniProt P35354)
T1 sequence (P35354 1-604): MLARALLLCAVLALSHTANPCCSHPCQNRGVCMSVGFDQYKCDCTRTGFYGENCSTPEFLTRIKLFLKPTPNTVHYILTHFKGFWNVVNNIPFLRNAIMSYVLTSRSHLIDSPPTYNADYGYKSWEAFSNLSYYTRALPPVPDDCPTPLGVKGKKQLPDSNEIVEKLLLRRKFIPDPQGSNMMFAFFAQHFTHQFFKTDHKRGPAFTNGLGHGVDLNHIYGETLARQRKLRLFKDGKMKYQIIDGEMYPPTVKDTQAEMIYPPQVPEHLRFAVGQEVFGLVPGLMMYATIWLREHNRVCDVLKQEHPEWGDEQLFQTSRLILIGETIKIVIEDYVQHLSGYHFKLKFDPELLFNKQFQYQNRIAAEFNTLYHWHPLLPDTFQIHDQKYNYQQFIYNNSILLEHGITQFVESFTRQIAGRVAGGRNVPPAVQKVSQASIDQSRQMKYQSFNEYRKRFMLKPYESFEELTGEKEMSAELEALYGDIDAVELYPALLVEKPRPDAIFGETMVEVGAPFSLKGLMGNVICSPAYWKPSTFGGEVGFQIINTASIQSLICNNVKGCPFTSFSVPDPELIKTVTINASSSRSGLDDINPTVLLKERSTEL
Test: LCMS-based COX2 enzymatic inhibition assay (PGE2 quantification)
Type: biochemical
Parameters: COX2 2 minutes pge2/pge2d4 area ratio Avg; other: 2 minutes; readout pge2/pge2d4 area ratio; average; COX2 2 minutes pge2/pge2d4 area ratio Avg; LLE; average LLE; COX2 2 minutes pge2 area (counts) Avg; readout pge2 area (counts); other: 2 min; "ovine COX2 (oCOX2), human recombinant COX2 (hCOX2)"
Conditions: for IC50: average
Experimental: We have adapted a previously reported cyclooxygenase enzymatic assay utilizing LCMS quantification of PGE2 as the product of COX-1 and COX2 catalyzed conversion of arachidonic acid to evaluate the binding properties of newly synthesized ligands [Cao, 2011]. These optimized and miniaturized (384-well plates) LCMS-based COX-1 and COX2 enzymatic assays enabled us to quickly evaluate newly synthesized ligands for COX2 binding affinity and selectivity vs COX-1. Using a shorter ligand-enzyme incubation time in the LCMS assay (2 minutes vs 10 minutes) also permitted us to prioritize ligands with faster binding kinetics. Considering the relatively slow on-rate kinetics of known coxibs, due to their 3-step binding mechanism [Marnett, 2009], we believe that optimizing this critical parameter will be key to the successful development of a COX2 PET tracer. Using these enzymatic assays, we have evaluated>200 newly synthesized ligands against COX2 and >20 ligands against COX-1. Another critical property necessary for a good PET radiotracer is to have low non-specific binding (NSB) to increase the free fraction and maximize the signal to noise ratio. This property can be evaluated using in-vitro protein binding assays, and we have now evaluated>50 newly synthesized ligands in mouse, rat and human plasma protein binding (PPB) assays as well as >15 ligands in a mouse brain protein binding (BPB) assay.
Ovine COX-1 (oCOX-1), ovine COX2 (oCOX2), human recombinant COX2 (hCOX2), arachidonic acid, PGE2, d4-PGD2, and […] (labeled with deuterium atoms at positions 3 and 4) were purchased from Cayman Chemicals (Ann Arbor, Mich.). The cofactors (−)epinephrine and hematin, and the COX inhibitors indomethacin, resveratrol and diclofenac were purchased from Sigma-Aldrich (St. Louis, Mo.). Celecoxib was purchased from 3B PharmaChem International (Wuhan, China). All organic solvents were HPLC grade or better and were purchased from Thermo Fisher (Hanover Park, Ill.). Formic acid was purchased from EMD Chemicals (San Diego, Calif.). Purified water was prepared by using a Millipore Milli-Q purification system (Millipore, Billerica, Mass.). All other chemicals and solvents were ACS reagent grade, unless stated otherwise.
In an Eppendorf tube, 146 μL of 100 mM Tris.HCl (pH 8.0) buffer, 2 μL of 100 μM hematin (co-factor) and 10 μL of 40 mM L-epinephrine (co-factor) were mixed at room temperature. Next, 20 μL of Tris.HCl (pH 8.0) buffer containing 0.2 μg COX2 or 0.1 μg COX-1 (approximately 1 unit of enzyme; 1 unit COX utilizes 1 nmol 02/mg/min at 37° C.) was added, and the solution was incubated at room temperature for 2 min. A 2 μL aliquot of the COX inhibitor in DMSO was added to the enzyme solution and preincubated at 37° C. for 10 min. Negative controls were identical except that 2 μL aliquots of DMSO without inhibitor were used instead.
Each COX reaction was initiated by adding 20 μL of arachidonic acid in Tris.HCl (pH 8.0) buffer to give a final concentration of 5 μM; and the reaction was terminated after 2 min by adding 20 μL of 2.0 M HCl. The surrogate standards d4-PGE2 and d4-PGD2 (10 μL aliquot of 50 ng/mL solution in methanol) were added to correct for errors or degradation during sample handling and for variation in injection volume or instrument response during LC-MS-MS. After 30 min, PGE2, PGD2 and their surrogate standards were extracted from each incubation mixture using 800 μL hexane/ethyl acetate (50:50, v/v). The organic phase was removed, evaporated to dryness, and reconstituted in 100 μL methanol/water (50:50, v/v) for analysis using LC-MS-MS.
The concentration of PGE2 in each sample was measured using LC-MS-MS, and the percent of COX inhibition by each test solution was determined by comparing the amount of PGE2 produced in the experiment with that produced in the negative control incubation. The formation of PGD2 was measured for quality control purposes, since the levels of PGD2 should be proportional to those of PGE2. […]

[1] = 2 minutes, readout pge2/pge2d4 area ratio, read-out: COX2 2 minutes pge2/pge2d4 area ratio Avg. IC50
[2] = 2 minutes, readout pge2 area (counts), read-out: COX2 2 minutes pge2 area (counts) Avg. IC50
[3] = 2 minutes, readout pge2/pge2d4 area ratio, average LLE
[4] = 2 minutes, readout pge2 area (counts), average LLE

SMILES | IC50 [1] [µM] | IC50 [2] [µM] | COX2 2 minutes pge2/pge2d4 area ratio Avg. LLE [3] | COX2 2 minutes pge2 area (counts) Avg. LLE [4] | COX2 10 minutes pge2 area (counts) Avg. LLE (10 minutes, readout pge2 area (counts), average LLE) | IC50 (10 minutes, readout pge2 area (counts), read-out: COX2 10 minutes pge2 area (counts) Avg. IC50) [µM]
CS(=O)(=O)c1ccc(-n2ccc3ccc(Cc4cccs4)nc32)cc1 [Compound 56] | 0.0305 | 0.0329 |  |  |  | 
COc1ncc(NCc2sccc2C)nc1-c1ccc(S(C)(=O)=O)cc1 [Compound 62] | 0.0345 | 0.0405 | 4.781 | 4.654 |  | 
CS(=O)(=O)c1ccc(-c2coc3ccc(NCc4ccco4)nc23)cc1 [Compound 68] | 0.0402 | 0.041 |  |  |  | 
CS(=O)(=O)c1ccc(-c2cccc(OCc3ccc(Cl)s3)n2)cc1 [Compound 69] | 0.0406 | 0.0288 | 2.722 | 2.834 |  | 
CS(=O)(=O)c1ccc(-c2cccc(Oc3ccccc3)n2)cc1 [Compound 70] | 0.0406 | 0.0465 |  |  |  | 
CC(C)Oc1ncc(NCc2cccs2)nc1-c1ccc(S(C)(=O)=O)cc1 [Compound 75] | 0.0454 | 0.0623 | 3.984 | 3.887 |  | 
CS(=O)(=O)c1ccc(-c2cncc(NCc3cccs3)c2)cc1 [Compound 79] | 0.0506 | 0.0596 | 4.192 | 4.109 |  | 
COc1ncc(OCc2ccco2)nc1-c1ccc(S(C)(=O)=O)cc1 [Compound 81] | 0.0559 | 0.041 | 5.231 | 5.428 |  | 
CS(=O)(=O)c1ccc(-c2cnc(N)c(OCc3cccs3)n2)cc1 [Compound 86] | 0.061 | 0.0682 | 5.134 | 5.087 |  | 
CS(=O)(=O)c1ccc(-c2nc(NCc3cccs3)cnc2N)cc1 [Compound 90] | 0.0671 | 0.942 | 5.442 | 4.51 |  | 
CS(=O)(=O)c1ccc(-n2ncc3ccc(NCc4cccs4)nc32)cc1 [Compound 92] | 0.0686 | 0.0584 |  |  |  | 
CS(=O)(=O)c1ccc(-c2cccc(OCc3ccc(F)cc3)n2)cc1 [Compound 95] | 0.0711 | 0.091 | 3.43 | 3.477 |  | 
CS(=O)(=O)c1ccc(-c2cnc(F)c(NCc3cccs3)n2)cc1 [Compound 97] | 0.0757 | 0.0581 | 4.517 | 4.626 |  | 
COCc1ccc(NCc2cccs2)nc1-c1ccc(S(C)(=O)=O)cc1 [Compound 100] | 0.0839 | 0.106 | 3.645 | 3.594 |  | 
CS(=O)(=O)c1ccc(-c2nc(OCc3cccs3)ccc2F)cc1 [Compound 101] | 0.0867 | 0.0772 | 3.357 | 3.332 |  | 
COc1ncc(NCc2ccns2)nc1-c1ccc(S(C)(=O)=O)cc1 [Compound 102] | 0.0875 | 0.103 | 5.647 | 5.572 |  | 
Cc1ncc(NCc2cccs2)nc1-c1ccc(S(C)(=O)=O)cc1 [Compound 103] | 0.0888 | 0.0733 | 4.751 | 4.838 |  | 
CS(=O)(=O)c1ccc(-c2cncc(NCc3ccsc3)n2)cc1 [Compound 104] | 0.0911 | 0.0741 | 4.901 | 4.97 |  | 
CS(=O)(=O)c1ccc(-c2cccc(NCc3nccs3)n2)cc1 [Compound 105] | 0.0915 | 0.105 | 3.99 | 3.918 |  | 
NS(=O)(=O)c1ccc(-c2cncc(NCc3cccs3)n2)cc1 [Compound 106] | 0.0916 | 0.0665 | 5.5926 | 5.699 |  | 
COc1ncc(NCc2nccs2)nc1-c1ccc(S(C)(=O)=O)cc1 [Compound 107] | 0.0933 | 0.0881 | 4.932 | 4.948 |  | 
Cn1ccc(CNc2cccc(-c3ccc(S(C)(=O)=O)cc3)n2)c1 [Compound 108] | 0.0945 | 0.0799 | 3.847 | 3.926 |  | 
C[C@H](Nc1cncc(-c2ccc(S(C)(=O)=O)cc2)n1)c1cccs1 [Compound 109] | 0.0982 | 0.0793 | 4.384 | 4.487 | 5.297 | 0.0132
CS(=O)(=O)c1ccc(-c2cncc(NCc3ccoc3)n2)cc1 [Compound 110] | 0.0984 | 0.0934 | 5.411 | 5.451 |  | 
CS(=O)(=O)c1ccc(-c2cnc3ccn(Cc4cccs4)c3c2)cc1 [Compound 111] | 0.0991 | 0.113 | 2.294 | 2.242 |  | 
CS(=O)(=O)c1ccc(-c2cccc(NCc3ccoc3)n2)cn1 [Compound 113] | 0.103 | 0.122 | 4.956 | 4.897 |  | 
CS(=O)(=O)c1ccc(-c2cnnc(NCc3cccs3)n2)cc1 [Compound 114] | 0.104 | 0.131 | 5.0904 | 5.034 |  | 
